One compound from US20040101827A1, “Methods of infection with hepatitis c virus” (priority 2000, published 2004) can be followed below.

For this assay, the system named is HCV. The assay can be described thus: Yield of HCV (HCV RNA level) in culture supernatant of HCV cDNA-introduced IMY42-5 cells, real-time detection RT-PCR. The format is cell-based, hepatitis C virus. Particulars: ribavirin 0, 25, 50, 100, 200 μM added simultaneously with Tam, cultured for 2 days (FIG. 10). As for the experimental part:
IMY42-5 cells were prepared by incorporating into IMY-N9 cells, pCALN/HCV RBZ and CAG-Mer-Cre-Mer (Nucleic Acids Res., 1996, 24(4), 543-548) that expresses active Cre recombinant enzyme by adding tamoxifen co-expressed constitutively therein. When tamoxifen acts on the cells, the stuffer region of pCALN/HCV RBZ was looped out and HCV cDNA was expressed.
IMY42-5 cells (2.5×10^5/ml) were inoculated, 100 μl/well in a 96-well plate, and then cultured overnight at 37° C. under 5% CO2 atmosphere. Then 4-hydroxi-tamoxifen (Tam) was added at a concentration of 100 nM. On the next day and 3 days after the addition of Tam, the culture supernatant was collected. RNA in the culture supernatant was extracted using ISOGEN-LS (Wako Pure Chemical Industries, Ltd.), and then HCV RNA levels were quantified by the Real-time detection RT-PCR (Takeuchi T. et al; Gastroenterology 1999; 116: 636-642) method.
CsA (100, 10, 1 and 0 nM) was added simultaneously with the addition of Tam to IMY42-5 cells. The cells were cultured for 3 days, and then HCV RNA levels in the culture supernatant was measured by Real-time detection RT-PCR.
Ribavirin (0, 25, 50, 100, 200 μM) was added simultaneously with the addition of Tam to IMY42-5 cells. The cells were cultured for 2 days, and then HCV RNA levels in the culture supernatant were measured.

On to `NC(=O)c1ncn([C@@H]2O[C@H](CO)[C@@H](O)[C@H]2O)n1` [Ribavirin, ribavirin], for which the “HCV RNA levels in the culture supernatant (yield of virus)” value is “no decrease”.
